Experiments:
[1] = test system: HepG2; experiment: Cytotoxicity against human HepG2 cells after 3 days by MTT assay; conditions: HepG2, 72 h
[2] = test system: MCF7; experiment: cells; conditions: Homo sapiens, MCF7, 72 h
Description: Cytotoxicity against human MCF7 cells after 3 days by MTT assay

[3] = test system: MDA-MB-231; experiment: cells; conditions: Homo sapiens, MDA-MB-231, 72 h
Description: Cytotoxicity against human MDA-MB-231 cells after 3 days by MTT assay

[4] = Cytotoxicity against human Hep3B cells after 3 days by MTT assay; conditions: 72 h
[5] = test system: A549; experiment: Cytotoxicity against human A549 cells after 3 days by MTT assay; conditions: A549, 72 h

| SMILES | IC50 [2] [µM] | IC50 [3] [µM] | IC50 [1] [µM] | IC50 [4] [µM] | IC50 [5] [µM] |
| --- | --- | --- | --- | --- | --- |
| CCCCCCCCCC[C@@H](O)[C@H]1CC[C@@H]([C@@H](O)CCCCCCCCCCCCCCC2=C[C@H](C)OC2=O)O1 | 30.7 |  |  |  |  |
| CCCCCCCCCC[C@H](O)[C@@H](O)CC[C@H](O)[C@@H](O)CC[C@@H](O)[C@H]1CC[C@H](CCCCCCCCCC2=C[C@H](C)OC2=O)O1 [SQUADIOLIN B] | 5.47 | 0.28 | 0.011 | 6.98 | 2.75 |
| CCCCCCCCCCCC[C@H](O)[C@H]1CC[C@@H]([C@@H](O)CCCCCCCCCCCCC2=C[C@H](C)OC2=O)O1 [SQUAFOSACIN F] | 35.1 | > 36 |  |  |  |
| CCCCCCCCCC/C=C\CC[C@@H](O)[C@H]1CC[C@H]([C@H](O)CCCCCCCCCCCCC2=C[C@H](C)OC2=O)O1 [BULLATENCIN] |  |  |  | 31.4 |  |
| CCCCCCCCCCCCC(O)C1CCC(C(O)CCCCCCCCCCCCCCC2=CC(C)OC2=O)O1 (stereo not given) | 8.11 |  |  |  |  |

The next lines start with results.

| IC50 [2] [µM] | IC50 [3] [µM] | SMILES | IC50 [1] [µM] | IC50 [4] [µM] | IC50 [5] [µM] |
| --- | --- | --- | --- | --- | --- |
| 2.83 | 0.63 | CCCCCCC(O)CCC[C@H](O)[C@H]1CC[C@H]([C@H](O)CC[C@@H](O)[C@H](O)CCCCCCCCCCCCC2=C[C@H](C)OC2=O)O1 (stereo not given in full) [SQUADIOLIN A] | 0.0056 | 3.52 | < 0.2 |
| 3.31 |  | CCCCCCCCCC[C@@H](O)[C@H]1CC[C@H]([C@H](O)CCCCCCCCCCCCCCCCC2=C[C@H](C)OC2=O)O1 |  |  |  |
| 26.4 | 18.1 | CCCCCCCCCC[C@@H](O)[C@H]1CC[C@H]([C@H](O)CCCCCC(O)CCCCCCCCC2=C[C@H](C)OC2=O)O1 (stereo not given in full) [SQUAFOSACIN C] | 18.9 | 14 | 21 |
| 28.3 |  | CCCCCCCCCCCCCC[C@@H](O)[C@H]1CC[C@H]([C@H](O)CCCCCCCCCCCCC2=C[C@H](C)OC2=O)O1 |  |  |  |
| 0.96 | 17 | CCCCCCC(O)C(O)CCCCCC[C@@H](O)[C@H]1CC[C@H]([C@H](O)CCCCCCCCCCCCC2=C[C@H](C)OC2=O)O1 (stereo not given in full) [SQUAFOSACIN B] | 0.71 | 0.72 | 0.66 |
|  | 0.0703 | CC(=O)O[C@H]1C(=O)[C@@]2(C)[C@H]([C@H](OC(=O)c3ccccc3)[C@]3(O)C[C@H](OC(=O)[C@H](O)[C@@H](NC(=O)c4ccccc4)c4ccccc4)C(C)=C1C3(C)C)[C@]1(OC(C)=O)CO[C@@H]1C[C@@H]2O [PACLITAXEL] | 0.0468 | 0.13 |  |
| 3.62 | 14.5 | CCCCCCCCCCCC[C@H](O)[C@@H](O)CCCC[C@@H](O)[C@H]1CC[C@H](CCCCCCCC(O)CC2=C[C@H](C)OC2=O)O1 (stereo not given in full) [SQUADIOLIN C] | 3.48 |  | 8.11 |
| 29.8 |  | CCCCCCCCCC[C@H](O)[C@H]1CC[C@@H]([C@@H](O)CCCCCCCCCCCCCCCCC2=C[C@H](C)OC2=O)O1 [SQUAFOSACIN G] |  |  |  |
